How the values were obtained:
Format in all cases: in vivo
[1] = test system: redroot pigweed (Amaranthus retroflexus); experiment: Test G Pre-Emergence Protocol; conditions: Amaranthus retroflexus, pre-emergence, 312 h, evaluated after 13 days; for pest or weed control at 15.625 g/ha: 15.625 g ai/ha; for pest or weed control at 15.625 g/ha / pest or weed control at 250 g/ha: read-out: Pigweed, Redroot damage rating (100=total damage to plant; 0=no damage to plant); for pest or weed control at 62.5 g/ha: 62.5 g ai/ha, 100=total damage to plant, 0=no damage to plant, read-out: plant damage rating, Pigweed, Redroot; for pest or weed control at 250 g/ha: 250 g ai/ha
Procedure, shortened: (§1)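 Scores are visual damage ratings from 0 (no damage) to 100 (total plant kill), taken 13 days after treatment. Compound was sprayed one day post-sowing at 15.625, 62.5 or 250 g/ha in 50:50 acetone/water with 0.5% Tween 20.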

[2] = test system: barnyardgrass (Echinochloa crus-galli); experiment: Test G Pre-Emergence Protocol; conditions: Echinochloa crus-galli, pre-emergence, 312 h, evaluated after 13 days; for pest or weed control at 15.625 g/ha: 15.625 g ai/ha, read-out: Barnyard grass damage rating (100=total damage to plant; 0=no damage to plant); for pest or weed control at 62.5 g/ha: 62.5 g ai/ha, 100=total damage to plant, 0=no damage to plant, read-out: plant damage rating, Barnyardgrass; for pest or weed control at 250 g/ha: 250 g ai/ha, read-out: Barnyardgrass damage rating (100=total damage to plant; 0=no damage to plant)
Procedure, shortened: as §1

[3] = test system: ivy-leaved morning glory (Ipomoea hederacea); experiment: Test G Pre-Emergence Protocol; conditions: Ipomoea, pre-emergence, 312 h, evaluated after 13 days; for pest or weed control at 15.625 g/ha: 15.625 g ai/ha, read-out: Morning-glory, Ivy-leaved damage rating (100=total damage to plant; 0=no damage to plant); for pest or weed control at 62.5 g/ha: 62.5 g ai/ha, 100=total damage to plant, 0=no damage to plant, read-out: plant damage rating, Morningglory, Ivy-leaved; for pest or weed control at 250 g/ha: 250 g ai/ha, read-out: Morningglory, Ivy-leaved damage rating (100=total damage to plant; 0=no damage to plant)
Procedure, shortened: as §1

[4] = test system: velvetleaf (Abutilon theophrasti); experiment: Test G Pre-Emergence Protocol; conditions: Abutilon theophrasti, pre-emergence, 312 h, evaluated after 13 days; for pest or weed control at 15.625 g/ha: 15.625 g ai/ha; for pest or weed control at 15.625 g/ha / pest or weed control at 250 g/ha: read-out: Velvetleaf damage rating (100=total damage to plant; 0=no damage to plant); for pest or weed control at 62.5 g/ha: 62.5 g ai/ha, 100=total damage to plant, 0=no damage to plant, read-out: plant damage rating, Velvetleaf; for pest or weed control at 250 g/ha: 250 g ai/ha
Procedure, shortened: as §1

[5] = test system: giant foxtail (Setaria faberi); experiment: Test G Pre-Emergence Protocol; conditions: Setaria faberi, pre-emergence, 312 h, evaluated after 13 days; for pest or weed control at 15.625 g/ha: 15.625 g ai/ha; for pest or weed control at 15.625 g/ha / pest or weed control at 250 g/ha: read-out: Foxtail, Giant damage rating (100=total damage to plant; 0=no damage to plant); for pest or weed control at 62.5 g/ha: 62.5 g ai/ha, 100=total damage to plant, 0=no damage to plant, read-out: plant damage rating, Foxtail, Giant; for pest or weed control at 250 g/ha: 250 g ai/ha
Procedure, shortened: as §1

[6] = test system: corn (Zea mays); experiment: Test G Pre-Emergence Protocol; conditions: Zea mays, pre-emergence, 312 h, evaluated after 13 days; for plant injury at 15.625 g/ha: 15.625 g ai/ha; for plant injury at 15.625 g/ha / plant injury at 250 g/ha: read-out: Corn damage rating (100=total damage to plant; 0=no damage to plant); for plant injury at 62.5 g/ha: 62.5 g ai/ha, 100=total damage to plant, 0=no damage to plant, read-out: plant damage rating, Corn; for plant injury at 250 g/ha: 250 g ai/ha
Procedure, shortened: as §1

[7] = test system: redroot pigweed (Amaranthus retroflexus); experiment: Test G Post-Emergence Protocol; conditions: Amaranthus retroflexus, post-emergence, 312 h; for pest or weed control at 15.625 g/ha: 15.625 g ai/ha, evaluated after 13 days (100=total damage to plant; 0=no damage to plant), read-out: Pigweed, Redroot damage rating; for pest or weed control at 62.5 g/ha: 62.5 g ai/ha, read-out: Pigweed, Redroot damage rating (100=total damage to plant; 0=no damage to plant); for pest or weed control at 62.5 g/ha / pest or weed control at 250 g/ha: evaluated after 13 days; for pest or weed control at 250 g/ha: 250 g ai/ha, read-out: damage to plant, Pigweed, Redroot (100=total damage to plant; 0=no damage to plant)
Procedure, shortened: (§2)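 Scores run 0 (no damage) to 100 (total damage) and were taken 13 days after spraying. Plants had been raised in pots for 8 days under glasshouse control (24/16 °C, 14 h photoperiod, 65% humidity) and then treated at 15.625, 62.5 or 250 g/ha.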

[8] = test system: barnyardgrass (Echinochloa crus-galli); experiment: Test G Post-Emergence Protocol; conditions: Echinochloa crus-galli, post-emergence, 312 h; for pest or weed control at 15.625 g/ha: 15.625 g ai/ha, evaluated after 13 days (100=total damage to plant; 0=no damage to plant), read-out: Barnyardgrass damage rating; for pest or weed control at 62.5 g/ha: 62.5 g ai/ha, read-out: Barnyardgrass damage rating (100=total damage to plant; 0=no damage to plant); for pest or weed control at 62.5 g/ha / pest or weed control at 250 g/ha: evaluated after 13 days; for pest or weed control at 250 g/ha: 250 g ai/ha, read-out: damage to plant, Barnyardgrass (100=total damage to plant; 0=no damage to plant)
Procedure, shortened: as §2

[9] = test system: ivy-leaved morning glory (Ipomoea hederacea); experiment: Test G Post-Emergence Protocol; conditions: Ipomoea, post-emergence, 312 h; for pest or weed control at 15.625 g/ha: 15.625 g ai/ha, evaluated after 13 days (100=total damage to plant; 0=no damage to plant), read-out: Morningglory, Ivy-leaved damage rating; for pest or weed control at 62.5 g/ha: 62.5 g ai/ha, read-out: Morningglory, Ivy-leaved damage rating (100=total damage to plant; 0=no damage to plant); for pest or weed control at 62.5 g/ha / pest or weed control at 250 g/ha: evaluated after 13 days; for pest or weed control at 250 g/ha: 250 g ai/ha, read-out: damage to plant, Morningglory, Ivy-leaved (100=total damage to plant; 0=no damage to plant)
Procedure, shortened: as §2

[10] = test system: velvetleaf (Abutilon theophrasti); experiment: Test G Post-Emergence Protocol; conditions: Abutilon theophrasti, post-emergence, 312 h; for pest or weed control at 15.625 g/ha: 15.625 g ai/ha, evaluated after 13 days (100=total damage to plant; 0=no damage to plant), read-out: Velvetleaf damage rating; for pest or weed control at 62.5 g/ha: 62.5 g ai/ha, read-out: Velvetleaf damage rating (100=total damage to plant; 0=no damage to plant); for pest or weed control at 62.5 g/ha / pest or weed control at 250 g/ha: evaluated after 13 days; for pest or weed control at 250 g/ha: 250 g ai/ha, read-out: damage to plant, Velvetleaf (100=total damage to plant; 0=no damage to plant)
Procedure, shortened: as §2

[11] = test system: giant foxtail (Setaria faberi); experiment: Test G Post-Emergence Protocol; conditions: Setaria faberi, post-emergence, 312 h; for pest or weed control at 15.625 g/ha: 15.625 g ai/ha, evaluated after 13 days (100=total damage to plant; 0=no damage to plant), read-out: Foxtail, Giant damage rating; for pest or weed control at 62.5 g/ha: 62.5 g ai/ha, read-out: Foxtail, Giant damage rating (100=total damage to plant; 0=no damage to plant); for pest or weed control at 62.5 g/ha / pest or weed control at 250 g/ha: evaluated after 13 days; for pest or weed control at 250 g/ha: 250 g ai/ha, read-out: damage to plant, Foxtail, Giant (100=total damage to plant; 0=no damage to plant)
Procedure, shortened: as §2

[12] = test system: corn (Zea mays); experiment: Test G Post-Emergence Protocol; conditions: Zea mays, post-emergence, 312 h; for plant injury at 15.625 g/ha: 15.625 g ai/ha, evaluated after 13 days (100=total damage to plant; 0=no damage to plant), read-out: Corn damage rating; for plant injury at 62.5 g/ha: 62.5 g ai/ha, read-out: Corn damage rating (100=total damage to plant; 0=no damage to plant); for plant injury at 62.5 g/ha / plant injury at 250 g/ha: evaluated after 13 days; for plant injury at 250 g/ha: 250 g ai/ha, read-out: damage to plant, Corn (100=total damage to plant; 0=no damage to plant)
Procedure, shortened: as §2

Row | SMILES | pest or weed control at 15.625 g/ha [1] [%] | pest or weed control at 62.5 g/ha [1] [%] | pest or weed control at 250 g/ha [1] [%] | pest or weed control at 15.625 g/ha [2] [%] | pest or weed control at 62.5 g/ha [2] [%] | pest or weed control at 250 g/ha [2] [%] | pest or weed control at 15.625 g/ha [3] [%] | pest or weed control at 62.5 g/ha [3] [%] | pest or weed control at 250 g/ha [3] [%] | pest or weed control at 15.625 g/ha [4] [%] | pest or weed control at 62.5 g/ha [4] [%] | pest or weed control at 250 g/ha [4] [%] | pest or weed control at 15.625 g/ha [5] [%] | pest or weed control at 62.5 g/ha [5] [%] | pest or weed control at 250 g/ha [5] [%] | plant injury at 15.625 g/ha [6] [%] | plant injury at 62.5 g/ha [6] [%] | plant injury at 250 g/ha [6] [%] | pest or weed control at 15.625 g/ha [7] [%] | pest or weed control at 62.5 g/ha [7] [%] | other results
1 | Cc1nc(C(F)(F)F)ccc1NC(=O)[C@@H]1C(=O)N(C)C[C@H]1c1ccc(C(F)(F)F)cc1 (racemic) [Compound 1566] | 0 | 0 | 0 | 0 | 0 | 0 | 0 | 0 | 0 | 0 | 0 | 0 | 0 | 0 | 0 | 0 | 0 | 0 | 0 | 0 | pest or weed control at 250 g/ha [7]: 0%; pest or weed control at 15.625 g/ha [8]: 0%; pest or weed control at 62.5 g/ha [8]: 10%; pest or weed control at 250 g/ha [8]: 20%; pest or weed control at 15.625 g/ha [9]: 0%; pest or weed control at 62.5 g/ha [9]: 0%; pest or weed control at 250 g/ha [9]: 0%; pest or weed control at 15.625 g/ha [10]: 0%; pest or weed control at 62.5 g/ha [10]: 0%; pest or weed control at 250 g/ha [10]: 0%; pest or weed control at 15.625 g/ha [11]: 0%; pest or weed control at 62.5 g/ha [11]: 0%; pest or weed control at 250 g/ha [11]: 0%; plant injury at 15.625 g/ha [12]: 0%; plant injury at 62.5 g/ha [12]: 0%; plant injury at 250 g/ha [12]: 0%
2 | CN1C[C@@H](c2ccc(C(F)(F)F)cc2)[C@H](C(=O)Nc2cncc(Cl)n2)C1=O (racemic) [Compound 1574] | 0 | 0 | 30 | 0 | 0 | 60 | 0 | 0 | 0 | 0 | 0 | 0 | 0 | 0 | 70 | 0 | 0 | 0 | 0 | 0 | pest or weed control at 250 g/ha [7]: 0%; pest or weed control at 15.625 g/ha [8]: 0%; pest or weed control at 62.5 g/ha [8]: 0%; pest or weed control at 250 g/ha [8]: 40%; pest or weed control at 15.625 g/ha [9]: 0%; pest or weed control at 62.5 g/ha [9]: 0%; pest or weed control at 250 g/ha [9]: 40%; pest or weed control at 15.625 g/ha [10]: 0%; pest or weed control at 62.5 g/ha [10]: 0%; pest or weed control at 250 g/ha [10]: 0%; pest or weed control at 15.625 g/ha [11]: 0%; pest or weed control at 62.5 g/ha [11]: 0%; pest or weed control at 250 g/ha [11]: 60%; plant injury at 15.625 g/ha [12]: 0%; plant injury at 62.5 g/ha [12]: 0%; plant injury at 250 g/ha [12]: 0%
3 | Cc1cnc(NC(=O)[C@@H]2C(=O)N(C)C[C@H]2c2ccc(C(F)(F)F)cc2)nc1 (racemic) [Compound 1575] | 0 | 0 | 0 | 0 | 0 | 0 | 0 | 0 | 0 | 0 | 0 | 0 | 0 | 0 | 0 | 0 | 0 | 0 | 0 | 0 | pest or weed control at 250 g/ha [7]: 0%; pest or weed control at 15.625 g/ha [8]: 0%; pest or weed control at 62.5 g/ha [8]: 0%; pest or weed control at 250 g/ha [8]: 0%; pest or weed control at 15.625 g/ha [9]: 0%; pest or weed control at 62.5 g/ha [9]: 0%; pest or weed control at 250 g/ha [9]: 0%; pest or weed control at 15.625 g/ha [10]: 0%; pest or weed control at 62.5 g/ha [10]: 0%; pest or weed control at 250 g/ha [10]: 0%; pest or weed control at 15.625 g/ha [11]: 0%; pest or weed control at 62.5 g/ha [11]: 0%; pest or weed control at 250 g/ha [11]: 0%; plant injury at 15.625 g/ha [12]: 0%; plant injury at 62.5 g/ha [12]: 0%; plant injury at 250 g/ha [12]: 0%

Source: US12077503B2, “Substituted cyclic amides and their use as herbicides” (FMC CORPORATION, priority 2015, dated 2024)
